# Assay results published in patent US20220202801A1, “USE OF COMPOUND IN PREPARATION OF DRUG FOR TREATING ATHEROSCLEROSIS” (GenEros Biopharma Ltd., priority 2019, published 2022).
# Tests used:
# [1] = tested on: CD68; test: Immunohistochemistry of aortic wall, CD68; type: in vivo, mice; conditions: for aorta (CD68) signal expression in blood vessels: IHC-P×400, single animal micrograph; for CD68 average optical density: aortic wall
# Description: (§1) Methods: SPF grade C57BL/6 ApoE −/−model mice were provided by Guangdong Medical Experimental Animal Center, laboratory animal production license No. SOCK (Guangdong) 2013-0002. Laboratory animal quality certificate number: 44007200048196). Mice were half male and half female, aged 8 to 12 weeks, and 72 animals in total. After four weeks of housing in a SPF-level animal facility, animals with less body weights were disposed. A total of 64 animals were randomly divided into 8 groups, 8 in each group, fed with 10% high-fat food, and received with different treatments. Animals were observed and administered with the medicines by gavage once daily. The body weights were measured once a week and continued for 58 days. […] The test sample was dissolved in dimethyl sulfoxide solution and prepared with 30% PEG300.
# (§2) After blood collection, the animals were sacrificed, and the aortic arch together with the heart and thoracic aorta were fixed with neutral formaldehyde and subject to pathological examination. The abdominal aorta was collected and quick-frozen in liquid nitrogen, and stored at −80° C.
# (§3) c) Immunohistochemistry: The thoracic aorta was sliced and detected by immunohistochemistry for the expression of CD68, intercellular adhesion molecule-1 (ICAM-1), and vascular cell adhesion Molecule-1 (VCAM-1).
# [2] = tested on: VCAM-1; test: Immunohistochemistry of aortic wall, VCAM-1; type: in vivo, mice; conditions: for aorta (VCAM-1) signal expression in blood vessels: IHC-P×400, single animal micrograph; for VCAM-1 average optical density: aortic wall
# Description: as §1, §2, §3
# [3] = tested on: ApoE knockout mice; test: Blood lipid metabolism TG, TCHO, HDL-c, LDL-c (Example 2); type: in vivo
# Description: Methods: A total of 130 SPF grade C57BL/6 ApoE −/− model male mice aged 8 weeks were purchased from Charles River Laboratories (Beijing, China) (animal license number: SCXK (Beijing) 2016-0001, animal qualification certificate No.: 11400700331337). After one week of acclimatization in a SPF-grade animal facility, the animals with less weights were discarded and the rest was randomly divided into 11 groups, with 8 animals in each group. Except for the healthy control group, the rest were fed with 10% high-fat food (the first day of the high-fat diet was recorded as D1). Starting from the 8th week of the high-fat diet, each group of animals was orally given solvents or corresponding drugs, and the volume of administration was 10 ml/kg, once a day for 8 weeks. Animals were observed and administered by gavage once a day and the body weight were measured once a week for 56 days. […] The store solution of the test samples was dissolved in dimethyl sulfoxide solution and prepared with 30% PEG300.
# At the end of the experiment, the animals were euthanized by inhalation of carbon dioxide. Blood was taken from the heart, and centrifuged at 3000 r/min at a low temperature centrifuge for 10 min to separate the serum. The levels of total cholesterol TC, triglyceride TG, high-density lipoprotein HDL-C, and low-density lipoprotein LDL-C were measured, and the remaining serum was stored in a refrigerator at −80° C.
# Before the start of the experiment, animal blood samples were analyzed for blood lipid metabolism, including conventional triglyceride (TG), total cholesterol (TCHO), high-density lipoprotein (HDL-c) and low-density lipoprotein (LDL-c). After high-fat or ordinary food feeding for 8 weeks, the blood lipid levels were measured again. After the drug treatment was started, blood lipid measurements were performed every four weeks until the end of the experiment.
# [4] = tested on: ICAM-1; test: Immunohistochemistry of aortic wall, ICAM-1; type: in vivo, mice; conditions: for aorta (ICAM-1) signal expression in blood vessels: IHC-P×400, single animal micrograph; for ICAM-1 average optical density: aortic wall
# Description: as §1, §2, §3
# [5] = tested on: atherosclerotic lesions in ApoE knockout mice; test: Aortic HE and oil red O staining, atherosclerotic lesion scores (Example 1); type: in vivo; conditions: for formation of arterial plaque (pathological results): medium doses, preventive treatment; for Mild n (number of animal cases with mild lesions) / Moderate n (number of animal cases with moderate lesions) / No lesion n (number of animal cases) / Severe n (number of animal cases with severe lesions): of 8 animals; for animals that had atherosclerosis (histological observation): of 8 aortas examined; for effect on atherosclerotic lesions compared with the statin group: overall, aortic pathology Example 1
# Description: as §1, §2
# a) HE staining: aortic arch was sliced and HE stained. The plaques were observed under optical microscope.
# b) Oil red O staining: aortic arch was sliced and oil red O stained. The plaques were observed under optical microscope.
# [6] = 2 mg/kg gavage QD, listed as Nib2, 2 mg/kg
# [7] = score 0-3 per Table 8, 2 mg/kg body weight
# [8] = score 0-3 per Table 8, 5 mg/kg body weight
# [9] = 5 mg/kg gavage QD, listed as Nib1, 5 mg/kg
# [10] = 5 mg/kg gavage QD, listed as sample A, 5 mg/kg
# [11] = 10 mg/kg gavage QD, listed as sample A, 10 mg/kg
structure (smiles),measurement,setting,value
O=C(N/N=C/c1coc2ccccc2c1=O)c1cccnc1 [Sample B],aorta (CD68) signal expression in blood vessels,[1]; 1 mg/kg,low to medium
same,aorta (CD68) signal expression in blood vessels,[1]; 2 mg/kg,low to medium
same,aorta (CD68) signal expression in blood vessels,[1]; 5 mg/kg,low to medium
same,CD68 average optical density,[1]; 1 mg/kg gavage QD,1.85 ± 1.51 ×10^−2
same,CD68 average optical density,[1]; 2 mg/kg gavage QD,2.22 ± 0.99 ×10^−2
same,CD68 average optical density,[1]; 5 mg/kg gavage QD,2.83 ± 1.40 ×10^−2
same,aorta (VCAM-1) signal expression in blood vessels,[2]; 1 mg/kg,low to medium
same,aorta (VCAM-1) signal expression in blood vessels,[2]; 2 mg/kg,low to medium
same,aorta (VCAM-1) signal expression in blood vessels,[2]; 5 mg/kg,low to medium
same,VCAM-1 average optical density,[2]; 1 mg/kg gavage QD,1.24 ± 0.99 ×10^−2
same,VCAM-1 average optical density,"[2]; 2 mg/kg gavage QD, 2 mg/kg",1.54 ± 1.11 ×10^−2
same,VCAM-1 average optical density,[2]; [6],reduced expression
same,VCAM-1 average optical density,[2]; 5 mg/kg gavage QD,1.69 ± 0.85 ×10^−2
same,effect on high-density lipoprotein (HDL-c) level compared with the vehicle group,[3],no obvious effect
same,effect on low-density lipoprotein (LDL-c) level compared with the vehicle group,[3],significantly reduce
same,effect on total cholesterol (TCHO) level compared with the vehicle group,[3],significantly reduce
same,effect on triglyceride (TG) level compared with the vehicle group,[3],significantly reduce
same,aorta (ICAM-1) signal expression in blood vessels,[4]; 1 mg/kg,low to medium
same,aorta (ICAM-1) signal expression in blood vessels,[4]; 2 mg/kg,low to medium
same,aorta (ICAM-1) signal expression in blood vessels,[4]; 5 mg/kg,low to medium
same,ICAM-1 average optical density,[4]; 1 mg/kg gavage QD,2.44 ± 1.19 ×10^−2
same,ICAM-1 average optical density,"[4]; 2 mg/kg gavage QD, 2 mg/kg",1.31 ± 1.40 ×10^−2
same,ICAM-1 average optical density,[4]; [6],reduced expression
same,ICAM-1 average optical density,"[4]; 2 mg/kg gavage QD, listed as sample B, 2 mg/kg",lower than the model control group
same,ICAM-1 average optical density,[4]; 5 mg/kg gavage QD,3.98 ± 1.64 ×10^−2
same,formation of arterial plaque (pathological results),[5],could delay the formation of arterial plaque in ApoE knockout mice to a certain extent
same,Mild n (number of animal cases with mild lesions),[5]; 1 mg/kg body weight,2
same,Moderate n (number of animal cases with moderate lesions),[5]; 1 mg/kg body weight,2
same,No lesion n (number of animal cases),[5]; 1 mg/kg body weight,1
same,Severe n (number of animal cases with severe lesions),[5]; 1 mg/kg body weight,3
same,Mild n (number of animal cases with mild lesions),[5]; 2 mg/kg body weight,3
same,Moderate n (number of animal cases with moderate lesions),[5]; 2 mg/kg body weight,1
same,No lesion n (number of animal cases),[5]; 2 mg/kg body weight,4
same,Severe n (number of animal cases with severe lesions),[5]; 2 mg/kg body weight,0
same,Mild n (number of animal cases with mild lesions),[5]; 5 mg/kg body weight,3
same,Moderate n (number of animal cases with moderate lesions),[5]; 5 mg/kg body weight,2
same,No lesion n (number of animal cases),[5]; 5 mg/kg body weight,1
same,Severe n (number of animal cases with severe lesions),[5]; 5 mg/kg body weight,2
same,animals that had atherosclerosis (histological observation),[5]; 1 mg/kg,7 cases
same,animals that had atherosclerosis (histological observation),[5]; 2 mg/kg,4 cases
same,animals that had atherosclerosis (histological observation),[5]; 5 mg/kg,7 cases
same,effect on atherosclerotic lesions compared with the statin group,[5],equivalent to or better than that of the statin group
same,"Scores (atherosclerotic lesion score, average of the group)","[5]; score 0-3 per Table 8, 1 mg/kg body weight",1.88 ± 1.13
same,"Scores (atherosclerotic lesion score, average of the group)",[5]; [7],0.62 ± 0.74
same,"Scores (atherosclerotic lesion score, average of the group)","[5]; score 0-3 per Table 8, 2 mg/kg body weight, listed as sample B",lower than the model control group
same,"Scores (atherosclerotic lesion score, average of the group)",[5]; [8],1.62 ± 1.06
O=c1[nH]c2ccccc2n1C1CCN(CCCC(c2ccc(F)cc2)c2ccc(F)cc2)CC1 [Sample A],aorta (CD68) signal expression in blood vessels,[1]; 2 mg/kg,low to medium
same,aorta (CD68) signal expression in blood vessels,[1]; 5 mg/kg,low to medium
same,aorta (CD68) signal expression in blood vessels,[1]; 10 mg/kg,low to medium
same,CD68 average optical density,[1]; 2 mg/kg gavage QD,2.78 ± 2.01 ×10^−2
same,CD68 average optical density,[1]; 5 mg/kg gavage QD,1.39 ± 0.67 ×10^−2
same,CD68 average optical density,[1]; 10 mg/kg gavage QD,1.86 ± 1.60 ×10^−2
same,aorta (VCAM-1) signal expression in blood vessels,[2]; 2 mg/kg,low to medium
same,aorta (VCAM-1) signal expression in blood vessels,[2]; 5 mg/kg,low to medium
same,aorta (VCAM-1) signal expression in blood vessels,[2]; 10 mg/kg,low to medium
same,VCAM-1 average optical density,[2]; 2 mg/kg gavage QD,1.41 ± 0.34 ×10^−2
same,VCAM-1 average optical density,"[2]; 5 mg/kg gavage QD, 5 mg/kg",0.77 ± 0.46 ×10^−2
same,VCAM-1 average optical density,[2]; [9],reduced expression
same,VCAM-1 average optical density,[2]; [10],lower than the model control group
same,VCAM-1 average optical density,"[2]; 10 mg/kg gavage QD, 10 mg/kg",0.49 ± 0.51 ×10^−2
same,VCAM-1 average optical density,[2]; [11],lower than the model control group
same,effect on high-density lipoprotein (HDL-c) level compared with the vehicle group,[3],significantly reduce
same,effect on low-density lipoprotein (LDL-c) level compared with the vehicle group,[3],significantly reduce
same,effect on total cholesterol (TCHO) level compared with the vehicle group,[3],significantly reduce
same,effect on triglyceride (TG) level compared with the vehicle group,[3],significantly reduce
same,aorta (ICAM-1) signal expression in blood vessels,[4]; 2 mg/kg,low to medium
same,aorta (ICAM-1) signal expression in blood vessels,[4]; 5 mg/kg,low to medium
same,aorta (ICAM-1) signal expression in blood vessels,[4]; 10 mg/kg,low to medium
same,ICAM-1 average optical density,"[4]; 2 mg/kg gavage QD, 2 mg/kg",2.11 ± 1.53 ×10^−2
same,ICAM-1 average optical density,"[4]; 2 mg/kg gavage QD, listed as sample A, 2 mg/kg",lower than the model control group
same,ICAM-1 average optical density,"[4]; 5 mg/kg gavage QD, 5 mg/kg",2.31 ± 1.16 ×10^−2
same,ICAM-1 average optical density,[4]; [9],reduced expression
same,ICAM-1 average optical density,[4]; [10],lower than the model control group
same,ICAM-1 average optical density,"[4]; 10 mg/kg gavage QD, 10 mg/kg",1.75 ± 1.46 ×10^−2
same,ICAM-1 average optical density,[4]; [11],lower than the model control group
same,formation of arterial plaque (pathological results),[5],could delay the formation of arterial plaque in ApoE knockout mice to a certain extent
same,Mild n (number of animal cases with mild lesions),[5]; 2 mg/kg body weight,4
same,Moderate n (number of animal cases with moderate lesions),[5]; 2 mg/kg body weight,0
same,No lesion n (number of animal cases),[5]; 2 mg/kg body weight,1
same,Severe n (number of animal cases with severe lesions),[5]; 2 mg/kg body weight,3
same,Mild n (number of animal cases with mild lesions),[5]; 5 mg/kg body weight,5
same,Moderate n (number of animal cases with moderate lesions),[5]; 5 mg/kg body weight,0
same,No lesion n (number of animal cases),[5]; 5 mg/kg body weight,3
same,Severe n (number of animal cases with severe lesions),[5]; 5 mg/kg body weight,0
same,Mild n (number of animal cases with mild lesions),[5]; 10 mg/kg body weight,1
same,Moderate n (number of animal cases with moderate lesions),[5]; 10 mg/kg body weight,2
same,No lesion n (number of animal cases),[5]; 10 mg/kg body weight,2
same,Severe n (number of animal cases with severe lesions),[5]; 10 mg/kg body weight,3
same,animals that had atherosclerosis (histological observation),[5]; 2 mg/kg,7 cases
same,animals that had atherosclerosis (histological observation),[5]; 5 mg/kg,5 cases
same,animals that had atherosclerosis (histological observation),[5]; 10 mg/kg,6 cases
same,effect on atherosclerotic lesions compared with the statin group,[5],equivalent to or better than that of the statin group
same,"Scores (atherosclerotic lesion score, average of the group)",[5]; [7],1.62 ± 1.19
same,"Scores (atherosclerotic lesion score, average of the group)",[5]; [8],0.62 ± 0.52
same,"Scores (atherosclerotic lesion score, average of the group)","[5]; score 0-3 per Table 8, 5 mg/kg body weight, listed as sample A",lower than the model control group
same,"Scores (atherosclerotic lesion score, average of the group)","[5]; score 0-3 per Table 8, 10 mg/kg body weight",1.75 ± 1.28
